Test results published in patent publication US20020032187A1, “Method for stimulating bone formation” (SmithKline Beecham Corporation, priority 1996, published 2002).
Read-outs that look alike come from different tables or passages of the source. No end group written: not given here.

Experiments:
ROS 17/2.8 osteoblasts = details: for increase over the basal level of osteocalcin: 48 hr incubation, Vitamin D3 at 10 nM, internal controls
Description: Cell culture: ROS 17/2.8 osteoblasts were routinely cultured in Ham's F-12 medium containing 5% FBS, 25 rmM HEPES (pH 7.4), 1.1 mM CaCl2, penicillin (10 U/ml) and streptomycin (10 ug/ml). The cells were subcultured twice a week using 0.04% trypsin containing 5 mM EDTA to detach the cells.
For the assay, 30,000 cells were plated per well in 24-well multidishes in 0.5 ml of HAM's F-12 medium containing 1% FBS and allowed to adhere for 3-4 hr at 37° C. in a humidified incubator with 5% CO2. Increasing concentrations of test compounds ([…]) were then added to the wells (duplicate cultures per concentration tested) and the incubation continued for an additional 48 hr. At the end of the incubation, cultures supernatants were removed and assayed for osteocalcin levels using a rat RIA as per the manufacturer's instructions. The lower limit of detection in this assay was 0.3 ng/ml. In every experiment, Vitamin D3 (10 nM) and the peptide cyclo[Arg-Gly-Asp-D-Phe-Val] were tested as an internal controls. […] Activity for each compound was expressed as the EC50 from the dose-response curve.

MC3T3-E1 osteoblasts = test: Mineralization of MC3T3 osteoblasts; type: cell-based, murine; details: 25 uM
Description: Mineralization of MC3T3 osteoblasts
To characterize the temporal sequence of osteoblast differentiation, 30,000 cells were plated/well in 24-well multidishes and grown for periods ranging from 3-26 days in a-MEM medium (GIBCO) containing 10% fetal bovine serum (V/V), penicillin (100 U/ml) and streptomycin (100 ug/ml), with or without supplementation with 5 mM β-glycerophosphate and 100 uM ascorbic acid in the presence or absence of RGD compounds.
Mineralization of cells was assessed by calcium isotope accumulation. Cells were incubated for 48 h in medium containing 0.5 uCi/mi of ^45CaCl2 at various time points after seeding. Subsequently, the monolayers were washed twice with PBS using 1 ml/wash. Cells were harvested and digested in 0.1 N NaOH and aliquots were counted by liquid scintillation counting using a Beckman 5500 scintillation counter.
Calcified nodules in actively mineralizing cultures were visualized by staining cell monolayers with Alizarin-Red-S (Sigma Chemical Co, St Louis, Mo.). Cell cultures were washed twice with PBS, fixed for 10 min in 50 percent ethanol, rehydrated with 1 ml of distilled water for 5 min and then stained for 1-3 min with 200 uL of 1 percent Alizarin Red S (aqueous). The monolayers were then washed extensively and very carefully using 1 ml H2O per wash. Calcified nodules which appeared a bright red color were identified by light microscopy.
To monitor the differentiation of cells to the mature osteoblast type, alkaline phosphatase activity was determined in cell lysates using the colorimetric assay. Cells were washed twice with PBS using 1 ml/wash. Subsequently, the monolayers were transferred to ice and cells lysed in 0.2 ml of 0.1% TX-100. […] The reactions were stopped with the addition of 100 uL of ice cold 0.25 N NaOH to each reaction and absorbance was read at 410 nm. […] Alkaline phosphatase activity was calculated as umol of substrate (p-nitrophenol) released/mg protein/min.
Osteocalcin levels in the supernatants were determined at various time points during the assay using a mouse RIA as per the manufacturers instructions. […]

CN1Cc2cc(C(=O)NCc3nc4ccccc4[nH]3)ccc2NC(CC(=O)O)C1=O (racemic) [7-[(((2-benzimidazolyl)methyl)amino)carbonyl]-2,3,4,5-tetrahydro4-methyl-3-oxo-1H-1,4-benzodiazepine-2-acetic acid]
stimulates release of osteocalcin (in words) (ROS 17/2.8 osteoblasts): osteocalcin-releasing

C=C1CC[C@H](O)C/C1=C/C=C1\CCC[C@]2(C)[C@@H]([C@H](C)CCCC(C)C)CC[C@@H]12 [Vitamin D3]
increase over the basal level of osteocalcin (ROS 17/2.8 osteoblasts): two to three fold increase

CC(C)[C@@H]1NC(=O)[C@@H](Cc2ccccc2)NC(=O)[C@H](CC(=O)O)NC(=O)CNC(=O)[C@H](CCCNC(=N)N)NC1=O [cyclo[Arg-Gly-Asp-D-Phe-Val]]
stimulates release of osteocalcin (in words) (ROS 17/2.8 osteoblasts): stimulate the release of osteocalcin
EC50 (ROS 17/2.8 osteoblasts; 48 h): 740 nM
increase over the basal level of osteocalcin (ROS 17/2.8 osteoblasts): two to three fold increase
stimulates release of osteocalcin (in words) (ROS 17/2.8 osteoblasts; listed as cyclo(Arg-Gly-Asp-D-Phe-Val)): osteocalcin-releasing
45Ca uptake (MC3T3-E1 osteoblasts): increased calcium uptake
alkaline phosphatase activity (MC3T3-E1 osteoblasts): enhanced alkaline phosphatase activity
calcification nodules upon Alizarin-Red staining (MC3T3-E1 osteoblasts): showed calcification nodules upon Alzirin staining

Benzyl-(N-methyl)Arg-Gly-Asp-NH-(2 or 4 chloro)Ph
stimulates release of osteocalcin (in words) (ROS 17/2.8 osteoblasts): stimulate the release of osteocalcin

Benzyl-(N-methyl)Arg-Gly-Asp-NHPh
stimulates release of osteocalcin (in words) (ROS 17/2.8 osteoblasts): stimulate the release of osteocalcin

Gly-Arc-Gly-Asp-Ser-OH (GRGDS-OH)
stimulates release of osteocalcin (in words) (ROS 17/2.8 osteoblasts): stimulate the release of osteocalcin
